Measurements as given in publication PMC5378937 (The Journal of Pharmacology and Experimental Therapeutics, 2016).
Changes are numbered by the printed parent chain. “Also recorded” adds a separate entry of the source. Like-named read-outs stand apart in the source and are kept apart here.

Experiments:
5-HT3AT6'S receptors = target: T1, 5-HT3AT6'S receptors (Homo sapiens, UniProt P46098, T279S); assay: Two-electrode voltage clamp in oocytes expressing the 5-HT3AT6'S receptor mutant; assay type: cell-based; conditions: for ΔpEC50 (ΔpIC50 for inhibitors, T6'S vs wild-type): 2 µM 5-HT; for IC50: read-out: pEC50 (pIC50 for inhibitors) at T6'S mutant (converted)
T1 construct: expressed in transfected cells; host or cells: Xenopus oocytes
T1 sequence (P46098 24-478 T279S): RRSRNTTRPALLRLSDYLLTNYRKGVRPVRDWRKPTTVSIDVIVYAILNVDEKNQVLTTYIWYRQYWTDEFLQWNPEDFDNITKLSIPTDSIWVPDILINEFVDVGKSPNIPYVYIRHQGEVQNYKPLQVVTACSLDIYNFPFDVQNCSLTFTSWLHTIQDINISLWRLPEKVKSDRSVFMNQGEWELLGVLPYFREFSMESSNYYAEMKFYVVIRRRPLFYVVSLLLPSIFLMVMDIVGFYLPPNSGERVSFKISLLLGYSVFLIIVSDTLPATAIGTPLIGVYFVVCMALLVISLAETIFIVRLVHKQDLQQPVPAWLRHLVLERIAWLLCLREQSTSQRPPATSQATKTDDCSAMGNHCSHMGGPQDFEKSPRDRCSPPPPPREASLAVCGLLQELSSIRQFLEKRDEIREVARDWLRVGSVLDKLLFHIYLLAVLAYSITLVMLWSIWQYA
Experimental: Microelectrodes were fabricated from borosilicate glass (GC120TF-10; Harvard Apparatus, Edenbridge, Kent, UK) using a two-stage horizontal pull (P-97; Sutter Instrument Company, Novato, CA) and filled with 3 M KCl. Pipette resistances ranged from 0.8 to 2.0 MΩ. Oocytes were placed in a perfusion chamber made from 2-mm-wide × 30-mm-long silicon tubing that was cut in half lengthways (total volume ∼0.1 ml), and were perfused with ND96 at a rate of 12 ml min^−1. Drug application was via a simple gravity-fed system calibrated to run at the same rate. […] A 3-minute wash was used between compound applications. Oils were dissolved in buffer containing 1% DMSO, freshly prepared each day, and constantly stirred during the experiments.
The effects of the compounds on 5-HT3AT6'S receptors were also evaluated. […] Parameters were incorporated into the model that defined changes in pEC50, pIC50, Max0, and pA2 values for 5-HT3AT6'S receptors. These parameters were statistically evaluated as described earlier.
Parameters were included in the model that allowed differences in agonist and inhibitory effects to be quantified and evaluated.

5-HT3 receptor [1] = target: T2, 5-HT3 receptor (Homo sapiens, UniProt P46098); assay: Dual application with bilobalide or diltiazem (allotopic vs syntopic inhibition), oocytes; assay type: cell-based; set-up: expressed in transfected cells; host or cells: Xenopus oocytes injected with cRNA transcribed from pGEMHE; conditions: 100 µM 5-HT
T2 sequence (P46098 24-478): T1 sequence (P46098 24-478 T279S) with S256T
Experimental: Dual application studies were performed as previously described ([Jarvis and Thompson, 2013]). This is a simple method to determine whether two channel blockers share the same binding site (syntopic inhibition) or bind to separate locations (allotopic inhibition). […] Concentrations of the test compounds, BB and DTZ, were selected such that they caused approximately 62% inhibition when used alone. From the results of these experiments, predicted levels of inhibition were derived for both allotopic and syntopic modes of action. These predictions were compared with data obtained experimentally using the same concentrations of the inhibitors acting together. For each oocyte, the change in the amplitude of the 5-HT response over time was monitored and taken into account. Inhibition by drugs was quantified in relation to interpolated control responses for each time point.
The dual application measurements were compared statistically with allotopic and syntopic predictions using a two-way analysis of variance in which the oocyte was included as a random effect (SPSS Statistics 20; IBM, Armonk, NY). Post-hoc testing was with Dunnett’s method, comparing the measured data to each of the predictions.

5-HT3 receptor [2] = target: T2, 5-HT3 receptor; assay: Flow cytometry competition binding with 10 nM fluorescent granisetron (G-FL) in HEK293 cells; set-up: expressed in transfected cells; host or cells: HEK293 cells, transient transfection with pcDNA3.1 construct; conditions: concentrations up to 1 mM, n = 3
Experimental: 5-HT3A subunit cDNA was cloned into pcDNA3.1 for expression in HEK293 cells (ThermoFisher Scientific, Waltham, MA). Cells were transiently transfected with this cDNA using polyethyleneimine (25 kDa, linear, powder; Polysciences Inc., Eppelheim, Germany). Thirty microliters of polyethyleneimine (1 mg ml^−1), 5 μg of cDNA, and 1 ml of DMEM were incubated for 10 minutes at room temperature, added dropwise to a 90-mm plate of 70–80% confluent HEK293 cells, and incubated for 2–3 days before use.
HEK293 cells expressing the 5-HT3 receptor were grown in monolayers and harvested from a 90-mm culture dish using 10 ml of Trypsin-EDTA (Sigma-Aldrich) for 10 minutes at 37°C. Digestion was terminated by the addition of 25 ml DMEM + 10% fetal bovine serum, and cells were pelleted at low speed for 2 minutes. […] Competition binding was measured by incubating HEK293 cells with different concentrations of nonlabeled ligands and 10 nM fluorescent granisetron (G-FL). […] The geometric mean was measured at each concentration of test compound and fitted to eq. 1 (see the following section) using a least-squares method (GraphPad Prism v4; GraphPad Software, La Jolla, CA).

[3] = target: T3, human 5-HT3 receptors (5-HT3A) (Homo sapiens, UniProt P46098); assay: Two-electrode voltage clamp of 5-HT-evoked currents in Xenopus oocytes expressing 5-HT3 receptors, nonlinear mixed-effects modeling
T3 sequence (P46098 24-478): T1 sequence (P46098 24-478 T279S) with S256T
Experimental: 5-HT3A subunit cDNA was cloned into pGEMHE for oocyte expression. cRNA was transcribed in vitro from a linearized plasmid cDNA template using the mMessage mMachine Ultra T7 Transcription kit (Ambion, Austin, TX). Stage V and VI oocytes were injected with 50 nl of 100–500 ng µl^−1 cRNA (5–25 ng injected), and currents were recorded 1–4 days postinjection.
Specifically, NONMEM allows the modeling of the relationship between drug and response, and importantly, the random between-oocyte variance, which is considerable. NONMEM enabled a single unified model to be created that included all electrophysiological agonist and antagonist data. […] The ability to allow for between-oocyte variance enabled raw peak currents to be analyzed, rather than normalized values. Normalization can obscure relationships between parameters, resulting in inaccurate and imprecise estimates of drug effects. Differences in peak currents and agonist potency between different oocytes were modeled with population variances (ω^2) associated with model parameters.
A structural model defined the relationship between the independent variables (i.e., agonist and antagonist concentrations) and the peak current (dependent variable).
The effect of time on the agonist response was modeled linearly as:(2) [drawing 2] where Max0 = as in eq. 1; MaxT = PRED when [A] = ∞ at time T; T = time (hours) from start of individual experiment; and nT = change in response per hour expressed as a proportion of the response at T = 0 (nT = 0 represents no change; nT = −0.1 represents a reduction of 10%, and nT = 0.1 represents an increase of 10% per hour).
The effect of the compounds on MaxT was modeled as follows:(3) [drawing 3] where MaxT = PRED when [A] = ∞ in the absence of drug D at time T (eq. 2); Max(D) = PRED when [A] = ∞ in the presence of drug D at time T; [D] = concentration of inhibitor drug; pIC50 = −log10[D] in the presence of which Max(D) = MaxT/2; and nH(D) = inhibitor Hill coefficient. (This model assumes that, when [D] = ∞, PRED = 0.)

[4] = tested on: 5-HT-induced contractions in rat trachea; assay: 5-HT-induced contraction of isolated rat trachea; conditions: granisetron 10 µM
Experimental: The trachea was removed from male Wistar albino rats (250–350 g), cut into 2-cm lengths, and mounted on a force transducer with a resting tension of 1.0 g in a 10-ml water-jacketed organ bath containing modified Tyrode’s solution (136 mM NaCl, 5 mM KCl, 0.98 mM MgCl2, 0.36 mM NaH2PO4, 2 mM CaCl2, 11.9 mM NaHCO3, 5.5 mM glucose, pH 7.4) continuously aerated with 95% O2/5% CO2 and kept at 37°C. Contractile responses were recorded using a force transducer (model FT03; Grass Technologies, Quincy, MA) connected to a PC-based data acquisition system (Dataq, PM-1000; DATAQ Instruments Inc., Akron, OH). The experiments were conducted after an equilibration period of 60 minutes and three successive similar contractile responses. Experiments were approved by the local animal ethics committee (protocol number 00084/2014.2).

[5] = tested on: 5-HT-evoked contractions of guinea pig ileum; assay: 5-HT-evoked contraction of isolated guinea pig ileum
Experimental: Guinea pig ileum was obtained from adult male guinea pigs (200–300 g). The ileum was cut into 1-cm lengths and mounted longitudinally to a force transducer with a resting tension of 0.5 g in a 10-ml water-jacketed organ bath containing Krebs’ buffer (118 mM NaCl, 4.7 mM KCl, 1.2 mM MgSO4, 1.25 mM CaCl2, 11 mM glucose, 10 mM HEPES, pH 7.2) continuously aerated with 95% O2/5% CO2 and kept at 37°C. The ileum segments were allowed to equilibrate for 10 minutes before the experiments were started, and contractile responses were recorded using LabChart 6 (ADInstruments Ltd., Oxford, UK). […] Following drug applications, the organ bath was flushed twice with fresh Krebs’ solution, and the ileum was allowed to recover for 10 minutes prior to the next application. […] Experiments involving animals were approved by the University of Cambridge Animal Welfare and Ethical Review Body (reference: PHARM 004/15).

5-HT3 receptors = target: 5-HT3 receptors; set-up: method as in Ashoor et al., 2013; conditions: ref Ashoor et al., 2013; cited from earlier work
[6] = IC50 (inhibition of 5-HT-evoked currents), wild-type, from nonlinear mixed-effects model
[7] = IC50 derived from normalized data, wild-type, normalized data instead of mixed-effects model
[8] = wild-type, population parameter estimate
[9] = wild-type, population parameter estimate, listed as Eucalyptol

Reduction of inhibitory potency compared with wild-type receptors (5-HT3AT6'S receptors) | ΔpEC50 (ΔpIC50 for inhibitors, T6'S vs wild-type) (5-HT3AT6'S receptors) | IC50 (5-HT3AT6'S receptors) [µM] | Measured dual inhibition with diltiazem compared with predictions (5-HT3 receptor [1]) | IC50 [3, 6] [µM] | IC50 [3, 7] [µM] | nH (inhibitor Hill coefficient) [3, 8] | Compound | Agonist action when applied alone (5-HT3AT6'S receptors) | Measured dual inhibition with bilobalide compared with predictions (5-HT3 receptor [1]) | Competition with G-FL binding (5-HT3 receptor [2]) | Effect on agonist (5-HT) pEC50 (interpretation of nG hypothesis test) ([3]; wild-type) | further results
 |  |  |  |  |  |  | NCCc1c[nH]c2ccc(O)cc12 [5-HT, 5-hydroxytryptamine, reference compound] |  |  |  |  | Increase in 5-HT sensitivity in the T6'S mutant (5-HT3AT6'S receptors): 2 fold; ΔpEC50 (T6'S vs wild-type) (5-HT3AT6'S receptors; agonist 5-HT): 0.35 ± 0.07; 5-HT nH (agonist Hill coefficient) ([3]; wild-type): 2.94 ± 0.13; Max (maximal 5-HT peak current) [3, 8]: 4.94 ± 0.64 µA
approximately 2 fold | −0.45 ± 0.22 | 724 | greater than the allotopic prediction | 258 | 174 | 1.0 | CC12CCC(CC1)C(C)(C)O2 [eucalyptol] | did not evoke currents; also recorded: no agonist action |  | unaffected; also recorded: no competition | Strong evidence that eucalyptol changes agonist pEC50 | Effect on 5-HT pEC50 at T6'S (5-HT3AT6'S receptors): did not alter the 5-HT pEC50; Kb [3]: 813 µM; nS (Schild coefficient) [3, 8]: 1.7; pA2 (shift in agonist pEC50) [3, 8]: 3.09; nH (inhibitor Hill coefficient) [3, 9]: 1.04 ± 0.11; nS (Schild coefficient) [3, 9]: 1.70 ± 0.24
 |  |  |  |  |  |  | CN1C2CCCC1CC(NC(=O)c1nn(C)c3ccccc13)C2 (centres unmarked) [granisetron] |  |  |  |  | Effect on 5-HT-induced contractions [4]: substantially inhibited; Effect on 5-HT-evoked contractions [5]: inhibited
approximately 2 fold | −0.34 ± 0.04 | 309 | greater than the allotopic prediction | 141 | 83 | 2.2 | C=CC(C)(O)CCC=C(C)C (centres unmarked) [linalool] | did not evoke currents; also recorded: no agonist action | greater than the allotopic prediction | unaffected; also recorded: no competition | No/weak evidence that linalool changes agonist pEC50 | nH (inhibitor Hill coefficient) ([3]; wild-type, population parameter estimate, listed as Linalool): 2.19 ± 0.26
 |  |  |  |  |  |  | CC1CCC(C(C)C)C(O)C1 (centres unmarked) [menthol] |  |  |  |  | IC50 (5-HT3 receptors): 163 µM

Compound | Reduction of inhibitory potency compared with wild-type receptors (5-HT3AT6'S receptors) | ΔpEC50 (ΔpIC50 for inhibitors, T6'S vs wild-type) (5-HT3AT6'S receptors) | IC50 (5-HT3AT6'S receptors) [µM] | Measured dual inhibition with diltiazem compared with predictions (5-HT3 receptor [1]) | IC50 [3, 6] [µM] | IC50 [3, 7] [µM] | nH (inhibitor Hill coefficient) [3, 8] | Agonist action when applied alone (5-HT3AT6'S receptors) | Measured dual inhibition with bilobalide compared with predictions (5-HT3 receptor [1]) | Competition with G-FL binding (5-HT3 receptor [2]) | Effect on agonist (5-HT) pEC50 (interpretation of nG hypothesis test) ([3]; wild-type) | further results
CC(C)=CCCC(C)=CC=O (mixture of isomers) [citral] | approximately 2 fold | −0.36 ± 0.10 | 282 | no different from the allotopic predictions | 120 | 98 | 1.3 | did not evoke currents; also recorded: no agonist action | no different from the allotopic predictions | unaffected; also recorded: no competition |  | Effect on agonist (5-HT) pEC50 (interpretation of nG hypothesis test) [3]: No evidence that citral changes agonist pEC50; nH (inhibitor Hill coefficient) ([3]; wild-type, population parameter estimate, listed as Citral): 1.34 ± 0.08
